From US9695155B2, “Herbicidal substituted pyrimidinyloxy benzene compounds” (E. I. DU PONT DE NEMOURS AND COMPANY, priority 2013, dated 2017)

Experiments:
sedge, umbrella = test: Test C flooded paddy test; assay type: in vivo, Cyperus difformis; conditions: Flood, scale 0 to 100 (0 no effect, 100 complete control), 13 to 15 days
In short: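 Under a constant 3 cm flood, test compounds went directly into the paddy water. Following 13 to 15 days of greenhouse growth, treated species and controls were compared by eye.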

velvetleaf = test: Test E preemergence; assay type: in vivo, Abutilon theophrasti; conditions: for Velvetleaf plant response rating: scale 0 to 100 (0 no effect, 100 complete control); for Plant response rating, Velvetleaf: scale 0 to 100, 0 no effect, 100 complete control
In short: (§1)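 Test chemicals formulated in a non-phytotoxic solvent mixture containing a surfactant were applied preemergence to seeds in silt loam soil or postemergence to plants at the 1- to 4-leaf stage in potting mix. After 14 to 21 days in a greenhouse, injury was visually rated against controls on a 0-100 scale (0 = no effect, 100 = complete control).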

large (Lg) crabgrass = test: Test E preemergence; assay type: in vivo, Digitaria sanguinalis; conditions: for Crabgrass, Large plant response rating: scale 0 to 100 (0 no effect, 100 complete control); for Plant response rating, Crabgrass, Large: scale 0 to 100, 0 no effect, 100 complete control
In short: as §1

fall panicum = test: Test E preemergence; assay type: in vivo, Panicum dichotomiflorum; conditions: for Panicum, Fall plant response rating: scale 0 to 100 (0 no effect, 100 complete control); for Plant response rating, Panicum, Fall: scale 0 to 100, 0 no effect, 100 complete control
In short: as §1

green foxtail = test: Test E preemergence; assay type: in vivo, Setaria viridis; conditions: for Foxtail, Green plant response rating: scale 0 to 100 (0 no effect, 100 complete control); for Plant response rating, Foxtail, Green: scale 0 to 100, 0 no effect, 100 complete control
In short: as §1

johnsongrass = test: Test E preemergence; assay type: in vivo, Sorghum halepense; conditions: for Johnsongrass plant response rating: scale 0 to 100 (0 no effect, 100 complete control)
In short: as §1

ragweed = test: Test E preemergence; assay type: in vivo, Ambrosia elatior; conditions: for Ragweed plant response rating: scale 0 to 100 (0 no effect, 100 complete control); for Plant response rating, Ragweed: scale 0 to 100, 0 no effect, 100 complete control
In short: as §1

arrowleaf sida = test: Test E preemergence; assay type: in vivo, Sida rhombifolia; conditions: for Arrowleaf Sida plant response rating: scale 0 to 100 (0 no effect, 100 complete control); for Plant response rating, Arrowleaf Sida: scale 0 to 100, 0 no effect, 100 complete control
In short: as §1

dayflower = test: Test E preemergence; assay type: in vivo, Commelina virginica; conditions: for Dayflower, VA plant response rating: scale 0 to 100 (0 no effect, 100 complete control); for Plant response rating, Dayflower, VA: scale 0 to 100, 0 no effect, 100 complete control
In short: as §1

morningglory = test: Test E preemergence; assay type: in vivo, Ipomoea coccinea; conditions: for Morningglory plant response rating: scale 0 to 100 (0 no effect, 100 complete control); for Plant response rating, Morningglory: scale 0 to 100, 0 no effect, 100 complete control
In short: as §1

nightshade = test: Test E preemergence; assay type: in vivo, Solanum ptycanthum; conditions: for Nightshade plant response rating: scale 0 to 100 (0 no effect, 100 complete control); for Plant response rating, Nightshade: scale 0 to 100, 0 no effect, 100 complete control
In short: as §1

hairy beggarticks = test: Test E preemergence; assay type: in vivo, Bidens pilosa; conditions: for Beggarticks plant response rating: scale 0 to 100 (0 no effect, 100 complete control); for Plant response rating, Beggarticks: scale 0 to 100, 0 no effect, 100 complete control
In short: as §1

FC(F)(F)c1cnn(-c2ccccc2Oc2ncc(Br)cn2)c1 [Compound 18, 5-bromo-2-[2-[4-(trifluoromethyl)-1H-pyrazol-1-yl]phenoxy]pyrimidine]
25: Velvetleaf plant response rating (velvetleaf; 16 g ai/ha)
0: Crabgrass, Large plant response rating (large (Lg) crabgrass; 16 g ai/ha) | Crabgrass, Large plant response rating (large (Lg) crabgrass; 31 g ai/ha) | Panicum, Fall plant response rating (fall panicum; 16 g ai/ha) | Foxtail, Green plant response rating (green foxtail; 16 g ai/ha) | Foxtail, Green plant response rating (green foxtail; 31 g ai/ha) | Johnsongrass plant response rating (johnsongrass; 16 g ai/ha) | Johnsongrass plant response rating (johnsongrass; 31 g ai/ha) | Johnsongrass plant response rating (johnsongrass; 62 g ai/ha) | Ragweed plant response rating (ragweed; 16 g ai/ha) | Ragweed plant response rating (ragweed; 31 g ai/ha) | Ragweed plant response rating (ragweed; 62 g ai/ha) | Plant response rating, Ragweed (ragweed; 125 g ai/ha) | Plant response rating, Ragweed (ragweed; 250 g ai/ha) | Arrowleaf Sida plant response rating (arrowleaf sida; 16 g ai/ha, preemergence) | Dayflower, VA plant response rating (dayflower; 16 g ai/ha) | Dayflower, VA plant response rating (dayflower; 31 g ai/ha) | Morningglory plant response rating (morningglory; 16 g ai/ha) | Morningglory plant response rating (morningglory; 31 g ai/ha) | Morningglory plant response rating (morningglory; 62 g ai/ha) | Plant response rating, Morningglory (morningglory; 125 g ai/ha) | Nightshade plant response rating (nightshade; 16 g ai/ha) | Beggarticks plant response rating (hairy beggarticks; 16 g ai/ha, preemergence) | Beggarticks plant response rating (hairy beggarticks; 31 g ai/ha, preemergence) | Plant response rating, Beggarticks (hairy beggarticks; Preemergence, 62 g ai/ha) | Plant response rating, Beggarticks (hairy beggarticks; preemergence, 125 g ai/ha) | Plant response rating, Beggarticks (hairy beggarticks; preemergence, 250 g ai/ha)
65: Foxtail, Green plant response rating (green foxtail; 62 g ai/ha)
95: Velvetleaf plant response rating (velvetleaf; 31 g ai/ha) | Plant response rating, Arrowleaf Sida (arrowleaf sida; preemergence, 250 g ai/ha) | Plant response rating, Dayflower, VA (dayflower; 125 g ai/ha) | Nightshade plant response rating (nightshade; 31 g ai/ha)
75: Plant response rating, Sedge, Umbrella (sedge, umbrella; 62 g ai/ha)
90: Plant response rating, Sedge, Umbrella (sedge, umbrella; 250 g ai/ha)
100: Velvetleaf plant response rating (velvetleaf; 62 g ai/ha) | Plant response rating, Velvetleaf (velvetleaf; 125 g ai/ha) | Plant response rating, Velvetleaf (velvetleaf; 250 g ai/ha) | Plant response rating, Crabgrass, Large (large (Lg) crabgrass; 125 g ai/ha) | Plant response rating, Crabgrass, Large (large (Lg) crabgrass; 250 g ai/ha) | Plant response rating, Panicum, Fall (fall panicum; 125 g ai/ha) | Plant response rating, Panicum, Fall (fall panicum; 250 g ai/ha) | Plant response rating, Foxtail, Green (green foxtail; 125 g ai/ha) | Plant response rating, Foxtail, Green (green foxtail; 250 g ai/ha) | Plant response rating, Nightshade (nightshade; 125 g ai/ha) | Plant response rating, Nightshade (nightshade; 250 g ai/ha)
80: Plant response rating, Johnsongrass (johnsongrass; 125 g ai/ha, scale 0 to 100, 0 no effect, 100 complete control)
50: Panicum, Fall plant response rating (fall panicum; 31 g ai/ha)
5: Arrowleaf Sida plant response rating (arrowleaf sida; 31 g ai/ha, preemergence)
70: Plant response rating, Sedge, Umbrella (sedge, umbrella; 31 g ai/ha) | Panicum, Fall plant response rating (fall panicum; 62 g ai/ha) | Plant response rating, Arrowleaf Sida (arrowleaf sida; Preemergence, 62 g ai/ha)
40: Crabgrass, Large plant response rating (large (Lg) crabgrass; 62 g ai/ha)
98: Plant response rating, Dayflower, VA (dayflower; 250 g ai/ha) | Nightshade plant response rating (nightshade; 62 g ai/ha)
85: Plant response rating, Sedge, Umbrella (sedge, umbrella; 125 g ai/ha) | Plant response rating, Arrowleaf Sida (arrowleaf sida; preemergence, 125 g ai/ha)
35: Dayflower, VA plant response rating (dayflower; 62 g ai/ha) | Plant response rating, Morningglory (morningglory; 250 g ai/ha)
